The target of one data set is RLK (Homo sapiens (Human), UniProt P42681). Put plainly: Inhibition of RLK enzymatic activity, Caliper assay. The class given is biochemical.
Another data set deals with NFAT-bla Jurkat cells. Put plainly: cells. As to conditions: Homo sapiens, read-out: TCR-induced NFAT IC50.
Another data set deals with human PBMCs. Put plainly: cells. Particulars: PBMC, read-out: CD3/CD28-induced IL-2 IC50.
For data set [1], the system named is cell types that do not express ITK and RLK. Put plainly: BioMap cell screening panel, cell types that do not express ITK and RLK. Particulars: data not shown. The class given is cell-based. From the text:
(§1) FIG. 1 depicts the inhibition of intracellular expression of IL-17 in the presence of an ITK/RLK inhibitor (Tool Compound A) by a population of T-cells activated by anti-CD3/anti-CD-28. FIG. 2 depicts results from a BioMap® cell screening panel (performed by BioSeek, Inc., South San Francisco, Calif.) is a set of cell-based assays used to probe the cellular potency and selectivity of inhibitory compounds. A variety of cell culture and co-culture systems are stimulated with a range of molecules. Biomarker readouts are pathway activities in the culture systems. The biomarker readouts measured in each system are indicated along the x-axis. […] Three concentrations of Compound A were tested for the ability to modulate the various readouts. […] The TH2 system consists of primary human umbilical vein endothelial cells co-cultured with 14-day TH2 polarized CD4 T-cell blasts stimulated with TCR and IL-2.

Data set [2] concerns human Th2 cell-HUVEC co-culture. Description: IL-17A secretion in primary Th2 cell-HUVEC co-cultures (BioMap TH2 system). Type of data set: cell-based. Particulars: stimulated by TCR activation and interleukin-2.
Description: as §1
(§2) Tool Compound A was tested in T cell co-cultures consisting of either a mixture of human primary peripheral blood mononuclear cells (PBMC) and B cells or human primary differentiated Th2 cells and human umbilical vein endothelial cells. The PBMC-B cell co-cultures were stimulated with TCR activators anti-CD3 and anti-CD28 and anti-IgM antibodies for 84 h to simulate B cell activation driven by T cell activation. Tool Compound A was tested at 10 μM, 1 μM, 100 nM and 10 nM. […]

For the next data set, the system named is murine Th17 cells. Put plainly: Differentiation of murine Th17 cells from CD4+ cells of TCR transgenic mice. Particulars: for pIC50: Mus musculus, 72 h. The class given is cell-based, mouse. The protocol: CD4+ cells from TCR transgenic mice (B10.A 5C.C7 TCR Tg (Rag-2^−/−)) were grown for three days in the presence of culture conditions that support the differentiation of the T cell population to Th17 cells (optimized concentrations of IL-6, TGF-β, IL-1β, IL-23, anti-mouse IL-2, anti-mouse IFN-γ, and anti-mouse IL-4 mAb). This was done in the presence of varying concentrations of Tool Compound A in the cell culture medium during the differentiation procedure. The cells were then activated with a combination of phorbol 12-myristate 13-acetate and ionomycin and the expression of the Th17 specific transcription factor RORγt and intracellular IL-17A was measured by flow cytometry.

For data set [3], the system named is human PBMC and B cell co-culture. Description: IL-17A secretion in PBMC-B cell co-cultures (BioMap BT system). The class given is cell-based.
Description: as §1, §2

A further data set has as its system human Th17 cells. Description: Intracellular IL-17 expression by purified human Th17 cells after anti-CD3/anti-CD28 activation. The class given is cell-based. Particulars: single dose of 500 nM, 1 h exposure, 12 h activation, FACS. The text has this:
A population of T cells enhanced in Th17 cells was produced using the EasySep™ human Th17 enrichment kit from StemCell Technologies. […]

The mark [4] stands for this setting: ATP at Km (100 μM), 15 min pre-incubation, 3 h reaction.

SMILES strings stand for the structures. pIC50: −log10 of the molar value. Counter-ions that a name gives are not always drawn. Like-named read-outs stand apart in the source and are kept apart here.

Chain of RLK (P42681 whole entry): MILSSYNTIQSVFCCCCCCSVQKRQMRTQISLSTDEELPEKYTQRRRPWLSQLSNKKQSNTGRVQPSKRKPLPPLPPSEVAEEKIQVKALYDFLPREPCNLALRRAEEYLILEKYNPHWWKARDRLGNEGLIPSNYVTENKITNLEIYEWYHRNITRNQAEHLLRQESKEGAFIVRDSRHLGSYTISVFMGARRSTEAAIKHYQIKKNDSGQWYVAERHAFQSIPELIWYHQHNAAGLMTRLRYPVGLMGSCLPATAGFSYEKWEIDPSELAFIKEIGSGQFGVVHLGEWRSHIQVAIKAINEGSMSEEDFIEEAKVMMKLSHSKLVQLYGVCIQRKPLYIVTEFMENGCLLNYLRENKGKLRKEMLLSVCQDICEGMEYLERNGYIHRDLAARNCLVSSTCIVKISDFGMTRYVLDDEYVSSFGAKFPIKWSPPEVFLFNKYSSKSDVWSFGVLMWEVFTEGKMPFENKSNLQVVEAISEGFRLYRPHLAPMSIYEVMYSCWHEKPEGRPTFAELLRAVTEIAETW

`C=CC(=O)N1CCC[C@@H]1Cn1c(NC(=O)c2ccc(-c3cnco3)s2)nc2cc(CN[C@H](C)CO)ccc21` [Example 13, N-(1-(((R)-1-acryloylpyrrolidin-2-yl)methyl)-5-((((R)-1-hydroxypropan-2-yl)amino)methyl)-1H-benzo[d]imidazol-2-yl)-5-(oxazol-5-yl)thiophene-2-carboxamide] had a pIC50 against RLK (setting [4]) of 9.52.
`COCC(C)NCc1ccc2c(c1)nc(NC(=O)c1ccc(-c3cnco3)s1)n2C[C@H]1CCCN1C(=O)C(C#N)=CC(C)(C)C` (stereo partly drawn) [Example 7, N-1-(((R)-1-(2-cyano-4,4-dimethylpent-2-enoyl)pyrrolidin-2-yl)methyl)-5-((((R)-1-methoxypropan-2-yl)amino)methyl)-1H-benzo[d]imidazol-2-yl)-5-(oxazol-5-yl)-thiophene-2-carboxamide formate]: the pIC50 is 7.00 with NFAT-bla Jurkat cells, 6.96 with human PBMCs and 8.68 against RLK (setting [4]).
Take `C=CC(=O)N1CCC[C@@H]1Cn1c(NC(=O)c2ccc(-c3cnco3)s2)nc2cc(CN[C@@H](C)CO)ccc21` [Example 12, N-(1-(((R)-1-acryloylpyrrolidin-2-yl)methyl)-5-((((S)-1-hydroxypropan-2-yl)amino)methyl)-1H-benzo[d]imidazol-2-yl)-5-(oxazol-5-yl)thiophene-2-carboxamide]: the pIC50 in the data set on NFAT-bla Jurkat cells was 8.30; with human PBMCs, 8.40; at RLK (setting [4]), 9.52.
Regarding `CC(C)(C)C=C(C#N)C(=O)N1CCC[C@@H]1Cn1c(NC(=O)c2ccc(-c3cnco3)s2)nc2cc(CO)ccc21` [Example 1, (R)-N-(1-((1-(2-cyano-4,4-dimethylpent-2-enoyl)pyrrolidin-2-yl)methyl)-5-(hydroxymethyl)-1H-benzo[d]imidazol-2-yl)-5-(oxazol-5-yl)thiophene-2-carboxamide], the pIC50 was 7.30 in the data set with NFAT-bla Jurkat cells, 7.15 with human PBMCs and 8.92 at RLK (setting [4]).
For `C=CC(=O)N1CCC[C@@H]1Cn1c(NC(=O)c2ccc(-c3cnco3)s2)nc2cc(CNCC3CC3)ccc21` [Example 9, (R)-N-(1-((1-acryloylpyrrolidin-2-yl)methyl)-5-(((cyclopropylmethyl)amino)methyl)-1H-benzo[d]imidazol-2-yl)-5-(oxazol-5-yl)thiophene-2-carboxamide], in that order: 8.40, 8.40 and 9.52.
For `C=CC(=O)N1CCC[C@@H]1Cn1c(NC(=O)c2ccc(C(F)F)s2)nc2cc(CN[C@@H](C)C(C)(C)C)ccc21` [PRN694], the “Inhibitory activity in cell types that do not express ITK and RLK” value in data set [1] is reported as “essentially no inhibitory activity”.
Turning to `C[C@H](NCc1ccc2c(c1)nc(NC(=O)c1ccc(C(F)F)s1)n2C[C@H]1CCCN1C(=O)C(C#N)=CC(C)(C)C)C(C)(C)C` [Tool Compound A, N-(1-(((R)-1-(2-cyano-4,4-dimethylpent-2-enoyl)pyrrolidin-2-yl)methyl)-5-((((S)-3,3-dimethylbutan-2-yl)amino)methyl)-1H-benzo[d]imidazol-2-yl)-5-(difluoromethyl)thiophene-2-carboxamide], the IL-17A secretion entry in data set [2] is listed as “inhibited IL-17A secretion in a dose dependent manner”. In addition, the pIC50 is above 7.60 in the data set with murine Th17 cells (three days under Th17 conditions, PMA/ionomycin, flow cytometry, read-out: Midpoint of dose response - Th17: Intracellular cytokine expression (IL-17)); around 7.60 in the data set on murine Th17 cells (three days under Th17 conditions, PMA/ionomycin, flow cytometry, read-out: Midpoint of dose response - Th17: Transcription factor expression (RORγt)); above 7.60 in the data set with murine Th17 cells (three days under Th17 differentiation conditions, read-out: Midpoint of dose response - Th17: Proliferation); 9.00 against RLK. For the same molecule, the “Concentration that blocks expression of Th17 differentiation markers (RORγt and IL-17A)” value in the data set with murine Th17 cells (cultures polarizing murine T cells into Th17) is recorded as at most 25 nM. In addition, the “IL-17A secretion into culture supernatant” value in data set [3] (10 μM, 1 μM, 100 nM and 10 nM, anti-CD3, anti-CD28 and anti-IgM for 84 h) is given as “inhibited in a dose dependent manner”. In data set [3] (BioMap panel, three concentrations), the “Release of soluble proinflammatory cytokines IL17A, IL17F and TNFα by activated T cells” value is “inhibits release”. Moreover, the “TCR-induced intracellular expression of IL-17” value in the data set on human Th17 cells is on record as “completely blocked”.
`CC(C)(C)C=C(C#N)C(=O)N1CCC[C@@H]1Cn1c(NC(=O)c2ccc(-c3cnco3)s2)nc2cc(CNCC3CC3)ccc21` [Example 2, (R)-N-(1-((1-(2-cyano-4,4-dimethylpent-2-enoyl)pyrrolidin-2-yl)methyl)-5-(((cyclopropyl-methyl)-amino)methyl)-1H-benzo[d]imidazol-2-yl)-5-(oxazol-5-yl)thiophene-2-carboxamide formate]: the values for the pIC50 in the data set with NFAT-bla Jurkat cells and in the data set with human PBMCs were 6.27 and 7.09, respectively.
Molecule `C=CC(=O)N1CCC[C@@H]1Cn1c(NC(=O)c2ccc(-c3cnco3)s2)nc2cc(CN[C@H](CO)C(C)(C)C)ccc21` [Example 10, N-(1-(((R)-1-acryloylpyrrolidin-2-yl)methyl)-5-((((S)-1-hydroxy-3,3-dimethylbutan-2-yl)-amino)methyl)-1H-benzo[d]imidazol-2-yl)-5-(oxazol-5-yl)thiophene-2-carboxamide] showed a pIC50 on RLK (setting [4]) of 9.70.
The same measure, in the same setting: the value for `C=CC(=O)N1CCC[C@@H]1Cn1c(NC(=O)c2ccc(-c3cnco3)s2)nc2cc(CN[C@@H](CO)C(C)(C)C)ccc21` [Example 11, N-(1-(((R)-1-acryloylpyrrolidin-2-yl)methyl)-5-((((R)-1-hydroxy-3,3-dimethylbutan-2-yl)-amino)-methyl)-1H-benzo[d]imidazol-2-yl)-5-(oxazol-5-yl)thiophene-2-carboxamide] was 9.30; that for `C[C@H](NCc1ccc2c(c1)nc(NC(=O)c1ccc(-c3cnco3)s1)n2C[C@H]1CCCN1C(=O)C(C#N)=CC(C)(C)C)C(C)(C)C` [Example 15, N-(1-(((R)-1-(2-cyano-4,4-dimethylpent-2-enoyl)pyrrolidin-2-yl)methyl)-5-((((S)-3,3-dimethyl-butan-2-yl)amino)methyl)-1H-benzo[d]imidazol-2-yl)-5-(oxazol-5-yl)thiophene-2-carboxamide] was 8.92.

The record behind these values is patent US9932329B2, “Benzimidazole derivatives as RLK and ITK inhibitors” (Principia Biopharma, Inc., priority 2014, dated 2018).
